In series [1] the test system is patients with CF homozygous for ΔF508. Further details: method as in PMID 31594690. The conditions noted are these: patients receiving ivacaftor/lumacaftor; cited from earlier work.
In the next series the test system is Caco-2 cells. Nature of the series: Intestinal permeability on Caco-2 cells. The conditions noted are these: A to B, n = 1. In kind it is in vitro ADME, human. The procedure: (§1) Caco-2 cells were obtained from the European Collection of Cell Cultures (ECACC) and used after a 21-day cell culture in 24-well Transwell plates. Test compounds and the references (vinblastine and propranolol) were prepared in protein-free Hanks’ balanced salt solution containing 25 mM HEPES (pH 7.4) at a concentration of 10 μM and added to either the apical or basolateral chambers of a Transwell plate assembly. Before the experiment, the integrity of the monolayer was checked by measuring the transepithelial resistance. Lucifer yellow (LY) was added to the donor buffer in all wells to assess the integrity of the cell layers by monitoring LY permeation. As LY cannot freely permeate lipophilic barriers, a high degree of LY transport indicates poor integrity of the cell layer. […] Concentrations of the compound in the samples were measured by LC–MS/MS. Apparent permeability (Papp) coefficients were calculated from the relationship: Papp = dQ/dt × 1/A × C0, where Papp is the apparent permeability coefficient (cm s^–1), dQ/dt is the amount of drug permeated per unit of time, A is the effective surface area of the artificial membrane exposed to the medium, and C0 is the initial drug concentration in the donor compartment. The efflux ratios, as an indication of active efflux from the apical cell surface, were calculated using the ratio of Papp(B → A)/Papp(A → B).

The nature of series [2]: Intestinal permeability on Caco-2 cells. Particulars: human, Caco-2, pH 7.4; A to B, n = 1; read-out: Caco-2 PA2B. Format: in vitro ADME, human. The protocol: as §1
Background: Passage across Caco-2 layers is used to estimate intestinal permeability.

Series [3] can be described thus: In vitro micronucleus test. In kind it is cell-based.
A further series deals with T1, CYP2D6 (Homo sapiens, UniProt P10635).
T1 construct: tissue BD Gentest; host or cells: human liver microsomes
The experiment in a line: CYP reversible inhibition in HLM, CYP2D6. Format: in vitro ADME. Particulars: probe dextromethorphan. The procedure: (§2) Test compounds were diluted in methanol and then added to mixture containing 50 mM potassium phosphate buffer, pH 7.4, human liver microsomes (BD Gentest) and probe substrate. After prewarming for 5 min at 37 °C, the reaction was started by adding cofactor mix (7.65 mg/mL glucose-6-phosphate, 1.7 mg/mL NADP, 6 U/mL of glucose-6-phosphate dehydrogenase), resulting in seven final concentrations of test compounds in the range 0.14–100 μM (2% methanol). Isoform specific conditions regarding probe substrate and microsomal protein concentrations are available in Table 2. Final concentrations of cofactor mix components were as follows: 1.56 mg/mL glucose-6-phosphate, 0.34 mg/mL NADP, and 1.2 U/mL glucose-6-phosphate dehydrogenase. After incubation at 37 °C, the reaction was terminated with acetonitrile:methanol (2:1) solution with internal standard. Samples were centrifuged, and the supernatant fractions were analyzed by LC-MS/MS. The instrument responses (test compounds and internal standard peak areas) were referenced to those for solvent controls (assumed as 100%) in order to determine the percentage reduction in probe metabolism. Percent of control activity vs concentration plots were generated and fitted using GraphPad Prism software to generate IC50.

The next series concerns the target T2, (h)H1 (Homo sapiens, UniProt P35367).
T2 construct: purchased Eurofins
Nature of the series: Radioligand binding, (h)H1 (Eurofins panel). The conditions noted are these: read-out: IC50, inhibition of radioligand binding to (h)H1.

For another series, the target named is T3, CYP1A2 (Homo sapiens, UniProt P05177).
T3 construct: tissue BD Gentest; host or cells: human liver microsomes
T3 sequence (P05177 1-516): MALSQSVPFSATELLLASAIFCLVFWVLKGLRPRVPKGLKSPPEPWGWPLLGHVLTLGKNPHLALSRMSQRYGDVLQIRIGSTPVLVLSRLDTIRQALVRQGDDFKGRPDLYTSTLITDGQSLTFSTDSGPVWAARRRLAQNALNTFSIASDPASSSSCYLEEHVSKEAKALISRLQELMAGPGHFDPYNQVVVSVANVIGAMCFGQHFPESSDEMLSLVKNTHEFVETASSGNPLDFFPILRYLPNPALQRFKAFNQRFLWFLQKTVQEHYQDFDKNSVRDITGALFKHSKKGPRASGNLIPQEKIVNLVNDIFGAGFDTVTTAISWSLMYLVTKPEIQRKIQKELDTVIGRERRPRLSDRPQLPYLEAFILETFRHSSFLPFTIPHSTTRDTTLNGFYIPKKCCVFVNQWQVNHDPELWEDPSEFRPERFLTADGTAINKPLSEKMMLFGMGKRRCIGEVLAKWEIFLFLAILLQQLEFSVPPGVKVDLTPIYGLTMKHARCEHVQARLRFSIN
The experiment in a line: CYP reversible inhibition in HLM, CYP1A2. Format: in vitro ADME. Particulars: probe phenacetin. The protocol:
as §2

Another series has as its target (h)Sigma. Nature of the series: Radioligand binding, (h)Sigma (Eurofins panel). Further details: species or system human. The conditions noted are these: read-out: IC50, inhibition of radioligand binding to (h)Sigma.
The next series deals with T4, CYP2C19 (Homo sapiens, UniProt P33261).
T4 construct: tissue BD Gentest; host or cells: human liver microsomes
Nature of the series: CYP reversible inhibition in HLM, CYP2C19. In kind it is in vitro ADME. Particulars: probe S-mephenytoin. The protocol:
as §2

Series [4] is described as follows: Hepatocyte stability, mouse. Format: in vitro ADME. Particulars: mouse hepatocytes. The procedure: The hepatocyte stability assay was performed by incubation of test compound at 1 μM, 0.03% DMSO in modified Krebs–Henseleit buffer with suspension of pooled cryopreserved hepatocytes (BioIVT, Hicksville, NY, USA) from mouse, rat, dog, or human (BioIVT, Hicksville, NY, USA) at 0.5 million viable hepatocytes/mL. Before adding the hepatocytes (time zero) and after 10, 20, 45, 90, 120, and 180 min of incubation (n = 2) at 37 °C while gently shaking, the reaction was stopped and proteins were precipitated with an excess of acetonitrile containing an internal standard. The samples were mixed, centrifuged, and filtered, and the supernatant was analyzed by liquid chromatography–mass spectrometry/mass spectrometry (LC–MS/MS). The instrument responses (peak areas/IS peak areas) were referenced to the zero-time point samples (considered as 100%) in order to determine the percentage of compound remaining.

The subject of a further series is CYP3A4. Nature of the series: CYP reversible inhibition in HLM, CYP3A4. In kind it is in vitro ADME. Particulars: human, human liver microsomes. The procedure:
as §2
(Liver microsomes are a subcellular fraction often used to study metabolism.)

pIC50: −log10 of the molar value.

T4 sequence (P33261 whole entry): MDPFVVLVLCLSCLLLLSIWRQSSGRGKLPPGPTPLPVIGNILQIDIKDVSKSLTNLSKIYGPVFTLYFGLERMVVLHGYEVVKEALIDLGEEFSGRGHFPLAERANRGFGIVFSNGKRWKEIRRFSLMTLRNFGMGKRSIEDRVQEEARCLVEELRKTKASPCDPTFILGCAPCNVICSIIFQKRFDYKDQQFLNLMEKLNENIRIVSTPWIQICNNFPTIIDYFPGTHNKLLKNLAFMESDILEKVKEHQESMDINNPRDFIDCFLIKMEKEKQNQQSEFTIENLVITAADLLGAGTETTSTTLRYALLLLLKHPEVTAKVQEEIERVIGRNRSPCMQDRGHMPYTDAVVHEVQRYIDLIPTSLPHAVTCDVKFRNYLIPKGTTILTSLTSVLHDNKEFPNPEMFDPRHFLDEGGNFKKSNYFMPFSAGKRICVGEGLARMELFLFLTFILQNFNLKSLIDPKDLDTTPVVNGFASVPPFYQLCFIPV
T1 sequence (P10635 whole entry): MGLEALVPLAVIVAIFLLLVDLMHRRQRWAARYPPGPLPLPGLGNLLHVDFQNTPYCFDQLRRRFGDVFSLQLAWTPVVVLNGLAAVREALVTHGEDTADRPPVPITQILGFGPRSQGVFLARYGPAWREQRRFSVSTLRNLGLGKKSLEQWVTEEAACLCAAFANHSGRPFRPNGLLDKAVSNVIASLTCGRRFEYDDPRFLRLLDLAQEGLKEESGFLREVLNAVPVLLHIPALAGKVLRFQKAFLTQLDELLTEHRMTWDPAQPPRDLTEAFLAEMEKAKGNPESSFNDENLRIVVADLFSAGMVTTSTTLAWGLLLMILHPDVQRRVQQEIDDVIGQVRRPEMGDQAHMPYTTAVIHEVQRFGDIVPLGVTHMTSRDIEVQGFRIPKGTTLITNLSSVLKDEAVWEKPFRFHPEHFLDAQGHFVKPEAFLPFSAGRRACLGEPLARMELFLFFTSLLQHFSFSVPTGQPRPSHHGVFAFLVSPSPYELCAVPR
T2 sequence (P35367 whole entry): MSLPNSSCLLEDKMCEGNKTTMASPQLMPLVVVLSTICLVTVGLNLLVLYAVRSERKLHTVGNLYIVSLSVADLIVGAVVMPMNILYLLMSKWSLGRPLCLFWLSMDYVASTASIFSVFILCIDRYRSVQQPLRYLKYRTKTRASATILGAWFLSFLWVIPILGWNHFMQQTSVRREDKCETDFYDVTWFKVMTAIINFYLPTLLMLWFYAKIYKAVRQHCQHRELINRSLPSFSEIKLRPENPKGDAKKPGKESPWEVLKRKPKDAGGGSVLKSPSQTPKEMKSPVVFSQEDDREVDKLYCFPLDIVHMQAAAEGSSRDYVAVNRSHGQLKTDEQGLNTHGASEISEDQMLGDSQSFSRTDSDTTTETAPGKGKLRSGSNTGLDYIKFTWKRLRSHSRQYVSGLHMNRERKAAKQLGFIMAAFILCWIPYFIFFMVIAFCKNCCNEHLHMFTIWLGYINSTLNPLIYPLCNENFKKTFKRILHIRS

What is called pIC50 is the negative decadic logarithm of the IC50, by convention in mol/L. As for `COC1CCN(C2CCN(c3cc(C(=O)NS(=O)(=O)N(C)C)nc4c3c(C3CCC3)nn4-c3ccc(F)cc3)CC2)CC1` [Compound 52, 3-Cyclobutyl-N-(N,N-dimethylsulfamoyl)-1-(4-fluorophenyl)-4-(4-methoxy-[1,4′-bipiperidin]-1′-yl)-1H-pyrazolo[3,4-b]pyridine-6-carboxamide], in [1], the efficacy versus placebo entry is given as “improved efficacy versus placebo”. The tolerability result in [1] was “well tolerated”. The “Caco-2 PA2B” value in the series with Caco-2 cells is 24.5 cm × 10^–6 s^–1. In addition, the Papp A→B at 1 h, 10 μM in series [2] was determined as 24.5 ×10⁻⁶ cm/s. For the same molecule, the clastogenicity / aneugenicity entry in series [3] is reported as “not mutagenic, clastogenic, or aneugenic”. Further, the pIC50 at CYP2D6 is below 4.00; on (h)H1, 5.10; against CYP1A2, below 4.00; at (h)Sigma, 6.44; against CYP2C19 it was below 4.48; in the series with CYP3A4 (pH 7.4, probe midazolam), below 4.00. This molecule had a pIC50 in the series with CYP3A4 (pH 7.4, probe testosterone) below 4.00. In addition, in [4], the “Hepatocyte stability: %LBF mouse” value was determined as 24 %LBF. Also, the “Hepatocyte stability: predicted hepCl mouse” value in series [4] (1 µM) was 31.7 mL/min/kg. In the series “Ames II test”, the mutagenicity entry is listed as “not mutagenic”.
